Results reported in patent US10174037B2, “Dihydropyrazolopyrimidinone compounds as PDE2 inhibitors” (Merck Sharp & Dohme Corp., priority 2015, dated 2019).

Legend:
[1] = molecular target: Rhesus PDE2A3 (Macaca mulatta, UniProt B3VTJ2); assay: PDE2 fluorescence polarization (IMAP FP) assay, rhesus PDE2A3; format: biochemical, rhesus macaque; conditions: Lab B, read-out: Rhesus PDE2 Ki (nM) Lab B
[2] = molecular target: human PDE2A1 (Homo sapiens (Human), UniProt O00408); assay: PDE selectivity IMAP FP assay, human PDE2A1; format: biochemical; conditions: Human PDE2; Lab B; read-out: Human PDE2 Ki (nM) Lab B
In short: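 Compound titrations run against PDE2 in Tris HCl pH 7.2 buffer with MgCl2 and DTT for 60 min at room temperature, using 50 nM FAM-cAMP plus 1000 nM cGMP and enzyme giving 20% conversion.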

human PDE2A1, sequence (O00408 other isoform, or with tags, fused parts or gaps): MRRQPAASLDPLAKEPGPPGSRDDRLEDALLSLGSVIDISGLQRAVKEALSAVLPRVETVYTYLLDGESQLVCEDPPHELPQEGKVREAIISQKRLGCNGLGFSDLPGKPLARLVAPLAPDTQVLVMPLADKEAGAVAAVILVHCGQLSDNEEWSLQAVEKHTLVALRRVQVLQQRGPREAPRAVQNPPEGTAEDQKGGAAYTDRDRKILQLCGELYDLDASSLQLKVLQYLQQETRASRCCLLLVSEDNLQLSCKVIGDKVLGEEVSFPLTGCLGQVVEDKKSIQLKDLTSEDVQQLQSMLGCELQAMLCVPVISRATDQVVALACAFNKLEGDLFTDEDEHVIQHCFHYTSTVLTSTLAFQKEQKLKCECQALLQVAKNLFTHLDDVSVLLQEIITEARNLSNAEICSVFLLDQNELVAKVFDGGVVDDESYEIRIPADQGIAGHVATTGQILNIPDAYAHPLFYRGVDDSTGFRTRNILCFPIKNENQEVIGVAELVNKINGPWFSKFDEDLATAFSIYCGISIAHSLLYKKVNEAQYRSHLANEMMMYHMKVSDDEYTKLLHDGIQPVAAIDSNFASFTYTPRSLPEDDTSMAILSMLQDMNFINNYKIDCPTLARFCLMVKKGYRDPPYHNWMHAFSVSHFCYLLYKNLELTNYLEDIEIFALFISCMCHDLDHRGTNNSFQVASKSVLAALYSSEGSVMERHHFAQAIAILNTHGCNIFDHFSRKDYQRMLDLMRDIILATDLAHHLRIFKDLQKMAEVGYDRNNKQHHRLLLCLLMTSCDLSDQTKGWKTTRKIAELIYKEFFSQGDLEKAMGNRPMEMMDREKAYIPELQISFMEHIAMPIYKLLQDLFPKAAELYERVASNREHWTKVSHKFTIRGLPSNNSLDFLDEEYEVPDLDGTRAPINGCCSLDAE
Rhesus PDE2A3, sequence (B3VTJ2 1-941): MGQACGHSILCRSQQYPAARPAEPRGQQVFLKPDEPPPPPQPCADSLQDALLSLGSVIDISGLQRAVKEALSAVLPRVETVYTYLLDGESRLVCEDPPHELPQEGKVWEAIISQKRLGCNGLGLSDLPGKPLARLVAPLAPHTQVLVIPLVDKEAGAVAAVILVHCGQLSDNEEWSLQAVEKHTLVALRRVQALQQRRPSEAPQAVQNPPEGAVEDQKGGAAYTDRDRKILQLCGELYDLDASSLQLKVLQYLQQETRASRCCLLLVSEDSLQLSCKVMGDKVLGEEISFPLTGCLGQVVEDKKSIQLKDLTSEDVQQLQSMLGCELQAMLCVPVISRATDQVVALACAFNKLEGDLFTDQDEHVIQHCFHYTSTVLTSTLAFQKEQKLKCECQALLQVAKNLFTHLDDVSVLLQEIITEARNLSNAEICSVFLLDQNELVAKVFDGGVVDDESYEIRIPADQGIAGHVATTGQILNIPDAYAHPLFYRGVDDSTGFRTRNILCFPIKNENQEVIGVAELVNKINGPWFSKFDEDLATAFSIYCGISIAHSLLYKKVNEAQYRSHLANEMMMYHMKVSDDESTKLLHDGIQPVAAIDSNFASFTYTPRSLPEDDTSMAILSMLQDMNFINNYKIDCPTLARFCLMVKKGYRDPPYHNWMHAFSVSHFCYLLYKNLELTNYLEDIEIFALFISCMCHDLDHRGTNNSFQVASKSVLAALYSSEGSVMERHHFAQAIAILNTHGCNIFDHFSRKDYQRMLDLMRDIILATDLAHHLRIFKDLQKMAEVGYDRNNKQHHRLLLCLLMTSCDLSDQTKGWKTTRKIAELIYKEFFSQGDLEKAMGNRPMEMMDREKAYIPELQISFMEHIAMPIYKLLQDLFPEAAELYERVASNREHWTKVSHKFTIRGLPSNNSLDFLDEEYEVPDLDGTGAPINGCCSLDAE

| Ki [1] [nM] | Ki [2] [nM] | Compound |
| --- | --- | --- |
| 0.59 | 0.31 | CC(c1ccc(C(F)F)c(F)c1)n1nc(CF)c2c(=O)[nH]c(N(C)C)nc21 (single isomer, unassigned) [Example 196, (R)- or (S)-1-(1-(4-(Difluoromethyl)-3-fluorophenyl)ethyl)-6-(dimethylamino)-3-(fluoromethyl)-1H-pyrazolo[3,4-d]pyrimidin-4(5H)-one] |
| 0.068 | 0.048 | CCC(c1ccc(C(F)(F)F)cc1F)n1nc(CF)c2c(=O)[nH]c(N(C)C)nc21 (single isomer, unassigned) [Example 198, (R)- or (S)-6-(Dimethylamino)-1-(1-(2-fluoro-4-(trifluoromethyl)phenyl)propyl)-3-(fluoromethyl)-1H-pyrazolo[3,4-d]pyrimidin-4(5H)-one] |
| 0.07 | 0.041 | CC(C)C(c1ccc(C(F)(F)F)cc1F)n1nc(CF)c2c(=O)[nH]c(N(C)C)nc21 (single isomer, unassigned) [Example 200, (R)- or (S)-6-(Dimethylamino)-1-(1-(2-fluoro-4-(trifluoromethyl)phenyl)-2-methylpropyl)-3-(fluoromethyl)-1H-pyrazolo[3,4-d]pyrimidin-4(5H)-one] |
| 0.058 | 0.042 | CN(C)c1nc2c(c(CF)nn2C(c2ccc(C(F)(F)F)cc2F)C2CC2)c(=O)[nH]1 (single isomer, unassigned) [Example 202, (R)- or (S)-1-(Cyclopropyl(2-fluoro-4-(trifluoromethyl)phenyl)methyl)-6-(dimethylamino)-3-(fluoromethyl)-1H-pyrazolo[3,4-d]pyrimidin-4(5H)-one] |
| 0.74 | 0.61 | CN(C)c1nc2c(c(CF)nn2C(c2ccc(C(F)(F)F)cc2F)C2CC2)c(=O)[nH]1 (single isomer, unassigned) [Example 203, (S)- or (R)-1-(Cyclopropyl(2-fluoro-4-(trifluoromethyl)phenyl)methyl)-6-(dimethylamino)-3-(fluoromethyl)-1H-pyrazolo[3,4-d]pyrimidin-4(5H)-one] |
| 0.072 | 0.038 | CCC(c1ccc(C(C)(F)F)cc1)n1nc(CF)c2c(=O)[nH]c(N(C)C)nc21 (single isomer, unassigned) [Example 205, (S)- or (R)-1-(1-(4-(1,1-Difluoroethyl)phenyl)propyl)-6-(dimethylamino)-3-(fluoromethyl)-1H-pyrazolo[3,4-d]pyrimidin-4(5H)-one] |
| 0.51 | 0.37 | CC(C)C(c1ccc(C(C)(F)F)cc1)n1nc(CF)c2c(=O)[nH]c(N(C)C)nc21 (single isomer, unassigned) [Example 206, (R)- or (S)-l-(1-(4-(1,1-Difluoroethyl)phenyl)-2-methylpropyl)-6-(dimethylamino)-3-(fluoromethyl)-1H-pyrazolo[3,4-d]pyrimidin-4(5H)-one] |
| 0.043 | 0.03 | CC(C)C(c1ccc(C(C)(F)F)cc1)n1nc(CF)c2c(=O)[nH]c(N(C)C)nc21 (single isomer, unassigned) [Example 207, (S)- or (R)-1-(1-(4-(1,1-Difluoroethyl)phenyl)-2-methylpropyl)-6-(dimethylamino)-3-(fluoromethyl)-1H-pyrazolo[3,4-d]pyrimidin-4(5H)-one] |
| 0.14 | 0.077 | CC(c1ccc(C(C)(F)F)cc1F)n1nc(CF)c2c(=O)[nH]c(N(C)C)nc21 (single isomer, unassigned) [Example 209, (S)- or (R)-1-(1-(4-(1,1-Difluoroethyl)-2-fluorophenyl)ethyl)-6-(dimethylamino)-3-(fluoromethyl)-1H-pyrazolo[3,4-d]pyrimidin-4(5H)-one] |
| 0.91 | 0.61 | CN(C)c1nc2c(c(CF)nn2C(c2ccc(C(C)(F)F)cc2)C2CC2)c(=O)[nH]1 (single isomer, unassigned) [Example 212, (R)- or (S)-1-(Cyclopropyl(4-(1,1-difluoroethyl)phenyl)methyl)-6-(dimethylamino)-3-(fluoromethyl)-1H-pyrazolo[3,4-d]pyrimidin-4(5H)-one] |
| 0.075 | 0.053 | CN(C)c1nc2c(c(CF)nn2C(c2ccc(C(C)(F)F)cc2)C2CC2)c(=O)[nH]1 (single isomer, unassigned) [Example 213, (S)- or (R)-1-(Cyclopropyl(4-(1,1-difluoroethyl)phenyl)methyl)-6-(dimethylamino)-3-(fluoromethyl)-1H-pyrazolo[3,4-d]pyrimidin-4(5H)-one] |
| 0.05 | 0.045 | CCC(c1ccc(C(C)(F)F)cc1F)n1nc(CF)c2c(=O)[nH]c(N(C)C)nc21 (single isomer, unassigned) [Example 214, (R)- or (S)-1-(1-(4-(1,1-Difluoroethyl)-2-fluorophenyl)propyl)-6-(dimethylamino)-3-(fluoromethyl)-1H-pyrazolo[3,4-d]pyrimidin-4(5H)-one] |
| 1.4 | 1.1 | CCC(c1ccc(C(C)(F)F)c(F)c1)n1nc(CF)c2c(=O)[nH]c(N(C)C)nc21 (single isomer, unassigned) [Example 216, (R)- or (S)-1-(1-(4-(1,1-Difluoroethyl)-3-fluorophenyl)propyl)-6-(dimethylamino)-3-(fluoromethyl)-1H-pyrazolo[3,4-d]pyrimidin-4(5H)-one] |
| 0.027 | 0.016 | CCC(c1ccc(C(C)(F)F)c(F)c1)n1nc(CF)c2c(=O)[nH]c(N(C)C)nc21 (single isomer, unassigned) [Example 217, (S)- or (R)-1-(1-(4-(1,1-Difluoroethyl)-3-fluorophenyl)propyl)-6-(dimethylamino)-3-(fluoromethyl)-1H-pyrazolo[3,4-d]pyrimidin-4(5H)-one] |
| 0.21 | 0.16 | CC(C)C(c1ccc(C(C)(F)F)c(F)c1)n1nc(CF)c2c(=O)[nH]c(N(C)C)nc21 (single isomer, unassigned) [Example 218, (R)- or (S)-1-(1-(4-(1,1-Difluoroethyl)-3-fluorophenyl)-2-methylpropyl)-6-(dimethylamino)-3-(fluoromethyl)-1H-pyrazolo[3,4-d]pyrimidin-4(5H)-one] |
| 0.03 | 0.022 | CC(C)C(c1ccc(C(C)(F)F)c(F)c1)n1nc(CF)c2c(=O)[nH]c(N(C)C)nc21 (single isomer, unassigned) [Example 219, (S)- or (R)-1-(1-(4-(1,1-Difluoroethyl)-3-fluorophenyl)-2-methylpropyl)-6-(dimethylamino)-3-(fluoromethyl)-1H-pyrazolo[3,4-d]pyrimidin-4(5H)-one] |
| 0.067 | 0.046 | CC(C)C(c1ccc(C(F)(F)F)c(F)c1)n1nc(CF)c2c(=O)[nH]c(N(C)C)nc21 (single isomer, unassigned) [Example 221, (S)- or (R)-6-Dimethylamino)-1-(1-(3-fluoro-4-trifluoromethyl)phenyl)-2-methylpropyl)-3-(fluoromethyl)-1H-pyrazolo[3,4-d]pyrimidin-4(5H)-one] |
| 0.063 | 0.044 | CCC(c1ccc(C(F)(F)F)c(F)c1)n1nc(CF)c2c(=O)[nH]c(N(C)C)nc21 (single isomer, unassigned) [Example 222, (R)- or (S)-6-(Dimethylamino)-1-(1-(3-fluoro-4-(trifluoromethyl)phenyl)propyl)-3-(fluoromethyl)-1H-pyrazolo[3,4-d]pyrimidin-4(5H)-one] |
| 1.5 | 1.4 | CC(c1ccc(C(F)(F)F)c(F)c1)n1nc(CC(F)(F)F)c2c(=O)[nH]c(O)nc21 (single isomer, unassigned) [Example 235, (S)- or (R)-1-(1-(3-Fluoro-4-(triduoromethyl)phenyl)ethyl)-6-hydroxy-3-(2,2,2-trifluoroethyl)-1H-pyrazolo[3,4-d]pyrimidin-4(5H)-one] |
| 5 | 3.4 | CC(c1ccc(C(C)(C)C)cc1)n1nc(CC(F)(F)F)c2c(=O)[nH]c(O)nc21 (single isomer, unassigned) [Example 236, (R)- or (S)-1-(1-(4-tert-Butylphenyl)ethyl)-6-hydroxy-3-(2,2,2-trifluoroethyl)-1H-pyrazolo[3,4-d]pyrimidin-4(5H)-one] |
| 7.1 | 5.8 | O=c1[nH]c(O)nc2c1c(CC(F)(F)F)nn2C(c1ccc(C(F)(F)F)c(F)c1)C1CC1 (single isomer, unassigned) [Example 238, (R)- or (S)-1-(Cyclopropyl(3-fluoro-4-(trifluoromethyl)phenyl)methyl)-6-hydroxy-3-(2,2,2-trifluoroethyl)-1H-pyrazolo[3,4-d]pyrimidin-4(5H)-one] |
| 11 | 8 | CC(C)C(c1ccc(C(F)(F)F)cc1)n1nc(CC(F)(F)F)c2c(=O)[nH]c(O)nc21 (single isomer, unassigned) [Example 240, (R)- or (S)-6-Hxdroxy-1-(2-methyl-1-(4-(trifluoromethyl)phenyl)propyl)-3-(2,2,2-trifluoroethyl)-1H-pyrazolo[3,4-d]pyrimidin-4(5H)-one] |
| 21 | 21 | CC1(C(c2ccc(C(F)(F)F)cc2)n2nc(CC(F)(F)F)c3c(=O)[nH]c(O)nc32)CC1 (single isomer, unassigned) [Example 244, (R)- or (S)-6-Hydroxy-1-((1-methylcyclopropyl)(4-(trifluoromethyl)phenyl)methyl)-3-(2,2,2-trifluoroethyl)-1H-pyrazolo[3,4-d]pyrimidin-4(5H)-one] |
| 26 | 27 | CC(C)(C)c1ccc(C(C2CC2)n2nc(CC(F)(F)F)c3c(=O)[nH]c(O)nc32)cc1 (single isomer, unassigned) [Example 250, (R)- or (S)-1-((4-tert-Butylphenyl)(cyclopropyl)methyl)-6-hydroxy-3-(2,2,2-trifluoroethyl)-1H-pyrazolo(3,4-d]pyrimidin-4(5H)-one] |
